The values that follow come from patent EP4043037A1, “CELLULAR HYDRATION COMPOSITIONS CONTAINING CYCLODEXTRINS” (Eastpond Laboratories Limited, priority 2010, dated 2012).

Series [1] can be described thus: NIR spectroscopy of water bonding with cyclodextrin additives. It is filed as physicochemical. On the procedure: Hydration bond energies in pure waters and solutions of the same waters containing cyclodextrin compounds were assayed using IR spectroscopy in the near and middle infrared ranges. To record linear signals throughout an entire wavelength range, attenuation from water absorbance was minimized with a short optical length cuvette.
NIR range spectra were registered on a FOSS NIR Systems, Inc. 6500 spectrometer and Sample Transport Module (STM) using a 1 mm-es cuvette. […]
Three samples of water were used in the present study. A first water sample (USA I) was obtained from the U.S. and was purified by reverse osmosis, carbon filtration, ultraviolet light exposure, membrane filtration to 0.2 micron absolute, and ozonation. A second water sample (USA II) was also obtained from the U.S. A third water sample (BP I) was obtained from Budapest, Hungary.
The following cyclodextrins were added to the above described water samples at a concentration range of 0.1% - 5% w/v: • α-cyclodextrin (αCD also denoted as ACD), Lot. No. CYL-2322. • β-cyclodextrin (βCD also denoted as BCD). Lot. No. CYL-2518/2. • γ-cyclodextrin (γCD also denoted as GCD), Lot. No. CYL-2323. • 2-hydroxypropyl-β-cyclodextrin (HPβCD, HPBCD), DS^∗ = 3.5, Lot. No. CYL-2232. • 2-hydroxypropyl-γ-cyclodextrin (HPCD, HPGCD), DS^∗ = 4.8, Lot. No. CYL-2258. • carboxymethyl-β-cyclodextrin (CMBCD), Lot. No. CYL-2576. • quaternary-ammonium-β-cyclodextrin (QABCD).

The subject of another series is C. elegans nematodes. In words: C. elegans lifespan in media with additives. It is filed as in vivo. The settings on record: for Animals alive, % of initial (N=50): derivatized cyclodextrin 0.1% w/v in media, USA 1 water; for effect on C. elegans survival: added to culture media; for effect on C. elegans survival / number of animals surviving to old ages: result in words; for Animals alive, (N= % of initial =50): parent cyclodextrin 0.1% w/v in media, USA I water; for number of animals surviving to old ages: after day 15, 0.1 % w/v. How it is done:
C. elegans nematodes were grown in petri-type dishes containing normal nutrient liquid media prepared alternatively with USA 1 water (described in Example 2) lacking any further additive component (control) or the same water supplemented with a parent α-, β-, or γ-cyclodextrin, and/or a bioactive agent, as an active component of cellular hydration. Fifty ⊥ 3 worms were transferred to each dish. Each condition was repeated in triplicate. Experiments were repeated for USA II and BP I waters described in Example 2.
Water additives: A. Addition of parent α-, β- and γ-cvclodcxtrins. B. Addition of L-arginine and nicotinamide. C. Addition of inclusion complexes of cyclodextrins with L-arginine and nicotinamide.

In series [2] the test system is Wheat seeds (Triticum aestivum). Put plainly: Wheat seed germination in water with additives. It is filed as in vivo. On the procedure:
For each condition, ten seeds were placed in continuous water contact in a Petri-type dish kept at 25C in 12 hr light/dark cycles. Photometric images were recorded on days 1 to 6 after seeding. The percentage of seeds germinated was calculated and compared as a function of time and of the applied additive concentrations.
Water samples for seed germination were used alone with no additive, or containing cyclodextrins, or containing clathrate inclusion complexes of cyclodextrin with L-arginine or with nicotinamide (both obtained from Sigma Chemical Co.; St. Louis, MO), or with L-carnitine (from Lonza AG; Switzerland). […] Additive solutions were prepared fresh on the day of germination start.
Germination kinetics in control and additive-modified water under identical conditions were quantified as the percentage of the seeds having a sprout. Each determination consisted of 100 seeds for each parameter. Results are reported in Table 1, below, and in FIGS. 11-13.

[3] abbreviates: wavelength region 900-1200 nm (FIG. 7).
Setting [4] is: day 0, additive 0.5% w/v in USA I water, Table 1.
The mark [5] stands for this setting: day 1, additive 0.5% w/v in USA I water, Table 1.
The mark [6] stands for this setting: day 2, additive 0.5% w/v in USA I water, Table 1.
[7] abbreviates: day 3, additive 0.5% w/v in USA I water, Table 1.
The mark [8] stands for this setting: day 4, additive 0.5% w/v in USA I water, Table 1.
[9] abbreviates: day 0, additive 0.5% w/v in USA 1 water, Table 2, percentage of the seeds having a sprout.
The mark [10] stands for this setting: day 1, additive 0.5% w/v in USA 1 water, Table 2, percentage of the seeds having a sprout.
Where [11] appears, read: day 2, additive 0.5% w/v in USA 1 water, Table 2, percentage of the seeds having a sprout.
Setting [12] is: day 3, additive 0.5% w/v in USA 1 water, Table 2, percentage of the seeds having a sprout.
Setting [13] is: day 4, additive 0.5% w/v in USA 1 water, Table 2, percentage of the seeds having a sprout.

As to “2-hydroxy-3-N,N,N-trimethylamino)propyl-β-cyclodextrin chloride [Quaternaryammonium-β-Cyclodextrin]”, the “water-bond interactions, second-derivative NIR spectra” value (shortened to “water-bond interactions”) in series [1] (1200-1500 nm (FIG. 8)) is listed as “significantly modified”; in series [1] (1620-1710 nm (FIG. 9)), “significantly modified”; in series [1] (2170-2370 nm (FIG. 10)), “further significantly modified”; in series [1] (setting [3]), “significantly modified”. For the same molecule, in series [1] (comparison among cyclodextrin-treated water samples (FIGS. 9 and 10)), the “effect on micro-structure of hydrogen bonds in bulk water (NIR spectral changes)” value is given as “largest”. Besides, the entries for the “Animals alive, % of initial (N=50)” value with C. elegans nematodes (life span 10 days), in the series on C. elegans nematodes (life span 15 days) and with C. elegans nematodes (life span 18 days) were 98 % of initial, 13 % of initial and 2 % of initial, respectively.

As to `CC(O)COC[C@H]1O[C@@H]2O[C@H]3[C@H](O)[C@@H](O)[C@@H](O[C@H]4[C@H](O)[C@@H](O)[C@@H](O[C@H]5[C@H](O)[C@@H](O)[C@@H](O[C@H]6[C@H](O)[C@@H](O)[C@@H](O[C@H]7[C@H](O)[C@@H](O)[C@@H](O[C@H]8[C@H](O)[C@@H](O)[C@@H](O[C@H]1[C@H](O)[C@H]2O)O[C@@H]8COCC(C)O)O[C@@H]7COCC(C)O)O[C@@H]6COCC(C)O)O[C@@H]5COCC(C)O)O[C@@H]4COCC(C)O)O[C@@H]3COCC(C)O` (stereo partly drawn) [HP-β-Cyclodextrin, 2-hydroxypropyl-β-cyclodextrin], the “water-bond interactions” value in series [1] (1200-1500 nm (FIG. 8)) is given as “significantly modified”; in series [1] (1620-1710 nm (FIG. 9)), “significantly modified”; in series [1] (2170-2370 nm (FIG. 10)), “significantly modified”; in series [1] (setting [3]), “further significantly modified”. Also, the “Animals alive, % of initial (N=50)” value with C. elegans nematodes (life span 10 days) is listed as 96 % of initial; in the series with C. elegans nematodes (life span 15 days), 17 % of initial; in the series with C. elegans nematodes (life span 18 days), 0 % of initial.

As for `N=C(N)NCCC[C@H](N)C(=O)O` [L-Arg, L-arginine, reference compound], the “effect on C. elegans survival” value in the series on C. elegans nematodes is on record as “little effect”. Moreover, the “wheat seed germination rate” value in series [2] (setting [4]) is 0 percentage of total seeds; in series [2] (setting [5]), 0 percentage of total seeds; in series [2] (setting [6]) it was 30 percentage of total seeds; in series [2] (setting [7]), 45 percentage of total seeds; in series [2] (setting [8]), 60 percentage of total seeds.

For the molecule `NC(=O)c1cccnc1` [nicotinamide, reference compound], in the series on C. elegans nematodes, the “effect on C. elegans survival” value is “little effect”. Moreover, the wheat seed germination rate in series [2] (setting [9]) was 0%; in series [2] (setting [10]) it was 0%; in series [2] (setting [11]), 4%; in series [2] (setting [12]), 10%; in series [2] (setting [13]), 60%.

Turning to `OC[C@H]1O[C@@H]2O[C@H]3[C@H](O)[C@@H](O)[C@@H](O[C@H]4[C@H](O)[C@@H](O)[C@@H](O[C@H]5[C@H](O)[C@@H](O)[C@@H](O[C@H]6[C@H](O)[C@@H](O)[C@@H](O[C@H]7[C@H](O)[C@@H](O)[C@@H](O[C@H]8[C@H](O)[C@@H](O)[C@@H](O[C@H]1[C@H](O)[C@H]2O)O[C@@H]8CO)O[C@@H]7CO)O[C@@H]6CO)O[C@@H]5CO)O[C@@H]4CO)O[C@@H]3CO` [β-Cydodextrin, β-cyclodextrin], the “Animals alive, (N= % of initial =50)” value with C. elegans nematodes (life span 10 days) is reported as 100 % of initial; in the series with C. elegans nematodes (life span 15 days), 18 % of initial; in the series on C. elegans nematodes (life span 18 days) it was 0 % of initial.

Turning to “carboxymethyl-β-cyclodextrin [Carboxymethyl-β-Cydodextrin]”, the “water-bond interactions” value in series [1] (1200-1500 nm (FIG. 8)) was “further significantly modified”; in series [1] (1620-1710 nm (FIG. 9)) it was “significantly modified”; in series [1] (2170-2370 nm (FIG. 10)) it was “significantly modified”; in series [1] (setting [3]), “further significantly modified”. The “Animals alive, % of initial (N=50)” value in the series on C. elegans nematodes (life span 10 days) is 94 % of initial; with C. elegans nematodes (life span 15 days) it was 11 % of initial; with C. elegans nematodes (life span 18 days), 0 % of initial.

On to α-cyclodextrin, for which the “number of animals surviving to old ages” value in the series with C. elegans nematodes is “significantly increased”. Also, the “Animals alive, (N= % of initial =50)” value is recorded as 100 % of initial with C. elegans nematodes (life span 10 days), 20 % of initial in the series with C. elegans nematodes (life span 15 days) and 2 % of initial in the series with C. elegans nematodes (life span 18 days). Besides, the wheat seed germination rate in series [2] (setting [9]) was 0%; in series [2] (setting [4]) it was 0 percentage of total seeds; in series [2] (setting [10]), 11%; in series [2] (setting [5]), 0 percentage of total seeds; in series [2] (setting [11]), 18%; in series [2] (setting [6]), 48 percentage of total seeds. The wheat seed germination rate is 68% in series [2] (setting [12]), 70 percentage of total seeds in series [2] (setting [7]), 92% in series [2] (setting [13]) and 85 percentage of total seeds in series [2] (setting [8]).

With γ-cyclodextrin, the “number of animals surviving to old ages” value with C. elegans nematodes was “significantly increased”. Also, the “Animals alive, (N= % of initial =50)” value is recorded as 100 % of initial with C. elegans nematodes (life span 10 days), 13 % of initial with C. elegans nematodes (life span 15 days) and 2 % of initial with C. elegans nematodes (life span 18 days).
